Reference: US20100204216A1, “PHARMACEUTICAL COMPOSITION FOR […]-beta PROTEIN ACCUMULATION” (SUMMITOMO CHEMICAL COMPANY LIMITED, priority 2007, published 2010)

System: CHP212 cells
Test: Measurement of fluctuation in the amount of Aβ accumulation in cultured nerve cells
Assay type: cell-based
Conditions: cultured nerve cells (human neuroblastoma CHP212); Aβ in the medium by ELISA (Human/Rat Amyloid β1-42 kit) 48 hours after addition of test substance; 10^-12 M to 10^-6 M; versus DMSO control (100%), FIG. 1
Text: FIG. 1 is a diagram showing results of measuring fluctuation caused by a test substance of the formula (a) in the amount of Aβ accumulation in cultured nerve cells (CHP212 cells).
In the diagram, each column represents, starting from the left, a result of measurement obtained in a well to which the test substance has been added so that its final concentration can be 10^−12M (10^−12 M), in a well to which the test substance has been added so that its final concentration can be 10^−11M (10^−11M), in a well to which the test substance has been added so that its final concentration can be 10^−10M (10^−10M), in a well to which the test substance A has been added so that its final concentration can be 10^−9M (10^−9M), in a well to which the test substance has been added so that its final concentration can be 10^−8M (10^−8M), in a well to which the test substance has been added so that its final concentration can be 10^−7M (10^−7M), and in a well to which the test substance has been added so that its final concentration can be 10^−6M (10^−6 M). The results are shown in % by setting a result obtained in a control well to which only a solvent (DMSO) has been added as 100%. […]

## O=c1cc(C(F)(F)F)c2cc(N(CC(F)(F)F)CC(F)(F)F)ccc2[nH]1 [formula (a)]
  amount of Aβ accumulation: markedly decreased
